In this assay the target is Tyrosine-protein kinase JAK2 (Homo sapiens) (UniProt O60674). Kind of assay: JAK2V617F project follow-up: kinase, reporter, cytotoxicity – HEL and Ba/F3 cells, late-stage follow-up (AID 2165). As to conditions: JAK2V617F panel: kinase, IRF1 reporter.

The structures appear in SMILES notation. Active and inactive are the calls of the source. No stated cut-off is given here; in the data, active means IC50 below about 9 µM; inactive means the rest.

Sequence of Tyrosine-protein kinase JAK2 (Homo sapiens) (O60674 whole entry, looked up, change not shown): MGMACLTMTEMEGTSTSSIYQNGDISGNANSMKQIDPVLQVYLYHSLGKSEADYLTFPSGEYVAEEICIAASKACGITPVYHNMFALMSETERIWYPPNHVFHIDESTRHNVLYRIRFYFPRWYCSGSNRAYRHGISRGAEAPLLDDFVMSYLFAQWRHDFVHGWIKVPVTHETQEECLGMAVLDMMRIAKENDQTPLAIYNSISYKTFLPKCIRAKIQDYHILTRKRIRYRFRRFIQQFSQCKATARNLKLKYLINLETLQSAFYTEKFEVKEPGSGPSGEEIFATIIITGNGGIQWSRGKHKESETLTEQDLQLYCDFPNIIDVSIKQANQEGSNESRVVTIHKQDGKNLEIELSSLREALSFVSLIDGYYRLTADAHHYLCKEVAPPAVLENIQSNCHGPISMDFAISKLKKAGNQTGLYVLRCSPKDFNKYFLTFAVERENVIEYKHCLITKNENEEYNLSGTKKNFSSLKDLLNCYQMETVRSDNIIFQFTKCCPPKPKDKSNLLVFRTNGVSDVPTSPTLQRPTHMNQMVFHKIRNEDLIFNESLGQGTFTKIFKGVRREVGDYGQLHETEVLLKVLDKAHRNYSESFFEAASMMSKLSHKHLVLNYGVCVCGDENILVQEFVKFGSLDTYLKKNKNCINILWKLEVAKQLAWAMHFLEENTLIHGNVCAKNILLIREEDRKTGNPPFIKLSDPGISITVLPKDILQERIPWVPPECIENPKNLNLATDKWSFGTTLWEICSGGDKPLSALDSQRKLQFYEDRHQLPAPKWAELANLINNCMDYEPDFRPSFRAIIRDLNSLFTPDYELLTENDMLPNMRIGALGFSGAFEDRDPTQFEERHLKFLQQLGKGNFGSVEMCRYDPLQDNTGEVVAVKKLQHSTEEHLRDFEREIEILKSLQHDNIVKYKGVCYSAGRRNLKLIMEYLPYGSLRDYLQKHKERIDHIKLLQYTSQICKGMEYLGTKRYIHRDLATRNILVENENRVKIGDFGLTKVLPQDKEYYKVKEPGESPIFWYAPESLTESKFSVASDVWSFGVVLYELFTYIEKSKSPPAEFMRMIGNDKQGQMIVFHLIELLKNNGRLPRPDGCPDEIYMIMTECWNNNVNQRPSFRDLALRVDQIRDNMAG

Consider `CC(C)c1cc(C=C(C#N)C(=O)NCCCc2ccccc2)cc(C(C)C)c1O`, for which the half-maximal inhibitory concentration (IC50) (Ba/F3, irf1 reporter) was 0.54 µM; the concentration for half-maximal inhibition (IC50) (HEL, irf1 reporter) is 1.15 µM; the IC50 (JAK2V617F) was 3.97 µM.

For `O=c1oc2ccc(Cl)cc2nc1/C=C(\O)c1ccco1`, the half-inhibitory concentration (IC50) is 5.55 µM (Ba/F3, irf1 reporter) and 4.75 µM (HEL, irf1 reporter).

Take `Cc1ccc(Cn2ccsc2=NC(=O)CCl)cc1`: the IC50 is 6.74 µM (Ba/F3, irf1 reporter) and 3.11 µM (HEL, irf1 reporter).

Take `CCN(CC)S(=O)(=O)c1cccc(-n2c(O)c(C=Nc3ccccc3C(=O)O)c3ccccc3c2=O)c1`: the IC50 (Ba/F3, irf1 reporter) was > 40 µM (inactive) and the IC50 (HEL, irf1 reporter) is > 40 µM (inactive).

For the compound `c1ccc(CCNc2nc(-c3ccccn3)nc3ccccc23)cc1`, the IC50 (Ba/F3, irf1 reporter) was 5.49 µM and the half-inhibitory concentration (IC50) (HEL, irf1 reporter) is 2.88 µM.

Regarding `N#C/C(=C\c1ccc(O)c(O)c1)C(=O)NCCc1ccccc1`, the IC50 (Ba/F3, irf1 reporter) was 0.2 µM; the IC50 (HEL, irf1 reporter) is 5.15 µM; the IC50 (JAK2V617F) was 0.79 µM.

`COc1cc2c(cc1OC)-c1cc(N3CCCc4ccccc43)nc(=O)n1CC2`: the IC50 (Ba/F3, irf1 reporter) is > 40 µM (inactive) and the IC50 (HEL, irf1 reporter) was > 40 µM (inactive).

For the compound `COc1cccc(N(C(=O)CCl)C(C(=O)NCCc2ccccc2)c2cccs2)c1` (stereo not given), the IC50 is, setting by setting: (Ba/F3, irf1 reporter) 2.76 µM; (HEL, irf1 reporter) 1.04 µM.

Turning to `O=C1C=C(Nc2ccc(O)cc2)C(=O)c2ccccc21`, the IC50 was 7.94 µM (Ba/F3, irf1 reporter) and 34.7 µM (HEL, irf1 reporter).

Turning to `COc1cc2ncnc(Nc3cccc(Br)c3)c2cc1OC`, the IC50 was 1.31 µM (Ba/F3, irf1 reporter); 3.16 µM (HEL, irf1 reporter); 4.94 µM (JAK2V617F).

For the compound `COc1ccc(C)cc1NC(=O)Nc1ccc(Br)cn1`, the IC50 (HEL, irf1 reporter) was > 40 µM (inactive) and the IC50 (JAK2V617F) is > 40 µM (inactive).

Take `O=C(Oc1cccc2c(O)cccc12)c1ccccc1`: the 50% inhibitory concentration (IC50) by setting is: (Ba/F3, irf1 reporter) 8.18 µM; (HEL, irf1 reporter) > 40 µM (inactive).

As for `Cc1ccc(O)c(NC(=O)COc2cc(C)ccc2C)c1`, where the note is “JAK2V617F”, the IC50 is 2.23 µM.

For the compound `Cc1ccc(O)c(NC(=O)COc2cccc3ccccc23)c1`, for the setting “JAK2V617F”, the IC50 was 2.34 µM.

As for `C=CCNc1ncnc2cc(OC)c(OC)cc12`, the IC50 is > 40 µM (inactive) (HEL, irf1 reporter) and > 40 µM (inactive) (JAK2V617F).

For `COCCOc1cc2ncnc(Nc3cccc(C#Cc4ccc(-c5ccccc5)cc4)c3)c2cc1OCCOC`, the IC50 (HEL, irf1 reporter) was > 40 µM (inactive) and the IC50 (JAK2V617F) was 3.81 µM.

On to `Cc1c(Cc2ccccc2)c(=O)oc2c(O)c(O)ccc12`, for which the IC50 was 6.58 µM (Ba/F3, irf1 reporter) and 31.9 µM (HEL, irf1 reporter).

For `Cc1[nH]c(=O)c(C(=O)C=Cc2cccc(Br)c2)c2c1CCCC2`, the IC50 runs as follows: (Ba/F3, irf1 reporter) 0.59 µM; (HEL, irf1 reporter) 1.13 µM; (JAK2V617F) 0.55 µM.

`Cc1ccc(O)c(NC(=O)COc2ccc(Br)cc2)c1`: where the note is “JAK2V617F”, the IC50 is 0.0327 µM.

Take `Cc1cccc(OCC(=O)Nc2ccccc2F)c1`: the IC50 reads like this: (HEL, irf1 reporter) > 40 µM (inactive); (JAK2V617F) > 40 µM (inactive).

Take `Cc1nc([N+](=O)[O-])c(Br)n1CC(=O)c1ccc2ccccc2c1`: the IC50 (Ba/F3, irf1 reporter) is 5.1 µM and the IC50 (HEL, irf1 reporter) was 21.1 µM.

For `Oc1ccc(Cl)cc1N=Cc1sc2ccccc2c1Cl`, the IC50 reads like this: (Ba/F3, irf1 reporter) 3.42 µM; (HEL, irf1 reporter) 5.53 µM.

`COc1cc2ncnc(Nc3cccc(C)c3)c2cc1OC`: the IC50 is, setting by setting: (HEL, irf1 reporter) 7.18 µM; (JAK2V617F) > 40 µM (inactive).

For the compound `COC1(OC)C(/C=C/c2ccc(Cl)cc2)C(C#N)(C#N)C1(OC)OC` (stereo not given), the concentration for half-maximal inhibition (IC50) was 1.33 µM (Ba/F3, irf1 reporter) and 6.57 µM (HEL, irf1 reporter).

Consider `Cc1ccc(O)c(NC(=O)COc2ccc(C3CCCCC3)cc2)c1`, for which the IC50 (JAK2V617F) is > 40 µM (inactive).

With `COc1cc2ncnc(Nc3ccc(O)c(Br)c3)c2cc1OC`, the IC50 is, setting by setting: (Ba/F3, irf1 reporter) 2.18 µM; (HEL, irf1 reporter) 2.98 µM; (JAK2V617F) 30.3 µM.

As to `Cc1ccc(C=CC(=O)c2c3c(c(C)[nH]c2=O)CCCC3)cc1`, the half-maximal inhibitory concentration (IC50) is, setting by setting: (Ba/F3, irf1 reporter) 6.04 µM; (HEL, irf1 reporter) 23.9 µM; (JAK2V617F) 3.38 µM.

With `Cc1cccc(NC(=O)COc2cccc(C)c2)c1`, the IC50 (JAK2V617F) was > 40 µM (inactive).

As to `CCCCn1c(=N)n(CC(=O)c2ccc(Br)s2)c2ccccc21`, the concentration for half-maximal inhibition (IC50) is, setting by setting: (Ba/F3, irf1 reporter) 3.61 µM; (HEL, irf1 reporter) 9.86 µM.

As to `Cc1cccc(N(Cc2ccccc2)C(=O)CCl)c1`, the IC50 (Ba/F3, irf1 reporter) is 1.13 µM and the half-inhibitory concentration (IC50) (HEL, irf1 reporter) was 4.76 µM.

For the compound `CCC(C)Nc1ncnc2cc(OC)c(OC)cc12` (stereo not given), the IC50 was > 40 µM (inactive) (HEL, irf1 reporter) and 1.79 µM (JAK2V617F).

As to `O=C(OCn1ncc(Cl)c(Cl)c1=O)c1ccc(F)cc1`, the half-inhibitory concentration (IC50) (Ba/F3, irf1 reporter) is 1.94 µM and the concentration for half-maximal inhibition (IC50) (HEL, irf1 reporter) was 8.04 µM.

With `O=C(NCCc1cccnc1)C1CCC(=O)N(CCc2cccc(F)c2)C1` (stereo not given), the IC50 is, setting by setting: (HEL, irf1 reporter) > 40 µM (inactive); (JAK2V617F) > 40 µM (inactive).

Consider `C#CCSc1nsc(SCC#C)c1C#N`, for which the half-inhibitory concentration (IC50) reads like this: (Ba/F3, irf1 reporter) 6.71 µM; (HEL, irf1 reporter) > 40 µM (inactive).

Turning to `O=C(CCl)NCc1cc(-c2ccc(Cl)cc2)no1`, the half-inhibitory concentration (IC50) was 5.56 µM (Ba/F3, irf1 reporter) and 7.68 µM (HEL, irf1 reporter).

In the case of `CC1CCCC(NC(=O)NC(=O)CCl)C1C` (stereo not given), the IC50 (Ba/F3, irf1 reporter) is 3.19 µM and the IC50 (HEL, irf1 reporter) is 31.1 µM.

Regarding `Cc1ccc(NC(=O)C(=Cc2ccc(C(=O)O)cc2)C(=O)Nc2ccc(C)cc2C)c(C)c1`, the concentration for half-maximal inhibition (IC50) (Ba/F3, irf1 reporter) is 2.9 µM and the 50% inhibitory concentration (IC50) (HEL, irf1 reporter) is 2.8 µM.

Consider `CC(C)(C)OC(=O)N[C@@H](Cc1ccccc1)c1nnc(S(=O)(=O)Cc2cccc(F)c2)o1`, for which the IC50 reads like this: (Ba/F3, irf1 reporter) 0.904 µM; (HEL, irf1 reporter) 26.3 µM.

Regarding `Nc1nc(N)c2nc(-c3ccccc3)c(N)nc2n1`, the IC50 by setting is: (Ba/F3, irf1 reporter) > 40 µM (inactive); (HEL, irf1 reporter) > 40 µM (inactive).

For the compound `COc1ccccc1-c1nnc(Sc2nc([N+](=O)[O-])nn2C)o1`, the concentration for half-maximal inhibition (IC50) was 35.5 µM (Ba/F3, irf1 reporter) and 13.6 µM (HEL, irf1 reporter).

Consider `c1ccc2c(CN3CCCCCC3)c[nH]c2c1`, for which the IC50 is, setting by setting: (Ba/F3, irf1 reporter) 14.3 µM; (HEL, irf1 reporter) 15.9 µM.

Consider `Cc1cccc(OCC(=O)Nc2cccc(O)c2)c1`, for which the IC50 reads like this: (HEL, irf1 reporter) > 40 µM (inactive); (JAK2V617F) > 40 µM (inactive).

Usually IC50 stands for the concentration at which inhibition is half-maximal.

The values are drawn from PubChem BioAssay AID2165 (The Scripps Research Institute Molecular Screening Center, 2009).
